For one data set, the target named is Cytochrome P450 2C19 (Homo sapiens, UniProt P33261). Briefly: Cytochrome panel assay with activity outcomes. Panel member name: p450-cyp2c19 Compounds with AC50 equal or less than 10 uM are considered active. The data set is classed as functional.
The next data set has as its target T1, Cytochrome P450 1A2 (Homo sapiens, UniProt P05177).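 Note: PubChem cytochrome P450 panel assay, CYP1A2 panel member.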
T1 sequence (P05177 whole entry): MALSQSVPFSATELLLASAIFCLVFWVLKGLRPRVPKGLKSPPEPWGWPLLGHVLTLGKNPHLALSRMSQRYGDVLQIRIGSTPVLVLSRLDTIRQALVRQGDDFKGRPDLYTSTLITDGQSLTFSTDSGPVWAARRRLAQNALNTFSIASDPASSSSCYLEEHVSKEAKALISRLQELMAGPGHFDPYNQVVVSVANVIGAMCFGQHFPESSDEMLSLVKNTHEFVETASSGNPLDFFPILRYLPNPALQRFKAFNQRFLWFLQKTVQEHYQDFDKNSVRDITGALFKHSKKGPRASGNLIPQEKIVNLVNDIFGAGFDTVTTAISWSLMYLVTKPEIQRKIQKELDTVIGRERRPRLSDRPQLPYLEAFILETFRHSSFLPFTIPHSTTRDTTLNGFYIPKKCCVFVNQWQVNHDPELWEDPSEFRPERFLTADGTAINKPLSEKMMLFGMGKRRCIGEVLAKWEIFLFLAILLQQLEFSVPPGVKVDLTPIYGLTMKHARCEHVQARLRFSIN

Data set [1] deals with Streptococcus sp. 'group A'. Briefly: growth inhibition of control SK(-) GAS strain, dose response, counter-screen for streptokinase expression inhibitor project, luminescence, kanamycin, BacTiterGlo, confirmation (AID 1900). The data set is classed as functional, organism-based.
The next data set deals with Streptococcus. Description: Group A Streptococcus viability loss, dose response, counter-screen for streptokinase expression inhibitor project, luminescence, BacTiterGlo (AID 1915).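 Note: potency for reduction of bacterial viability or growth.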 The class given is functional, organism-based.
In the next data set the target is Cytochrome P450 2C9 (Homo sapiens, UniProt P11712).
The nature of data set [2]: inhibitors of intracellular T. cruzi replication, confirmation, NIH3T3 host cells, beta-gal luminescence (AID 2044).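 Note: intracellular parasites grown in NIH/3T3 mouse fibroblasts as host cells; luminescent beta-galactosidase reporter signal from transgenic T. cruzi replicating inside host cells; inhibitors lower the luminescence signal.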 The class given is functional, cell-based.
Data set [3] is described as follows: cytotoxicity toward NIH3T3 fibroblasts, dose response, counter-screen, cell-based, ATP luminescence, mouse fibroblasts (AID 2010).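 Note: cells exposed to compound for about 90 hours before reading.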 The data set is classed as functional.
The next data set deals with T2, Streptokinase A (Streptococcus pyogenes serotype M1, UniProt P10520).
T2 sequence (P10520 whole entry): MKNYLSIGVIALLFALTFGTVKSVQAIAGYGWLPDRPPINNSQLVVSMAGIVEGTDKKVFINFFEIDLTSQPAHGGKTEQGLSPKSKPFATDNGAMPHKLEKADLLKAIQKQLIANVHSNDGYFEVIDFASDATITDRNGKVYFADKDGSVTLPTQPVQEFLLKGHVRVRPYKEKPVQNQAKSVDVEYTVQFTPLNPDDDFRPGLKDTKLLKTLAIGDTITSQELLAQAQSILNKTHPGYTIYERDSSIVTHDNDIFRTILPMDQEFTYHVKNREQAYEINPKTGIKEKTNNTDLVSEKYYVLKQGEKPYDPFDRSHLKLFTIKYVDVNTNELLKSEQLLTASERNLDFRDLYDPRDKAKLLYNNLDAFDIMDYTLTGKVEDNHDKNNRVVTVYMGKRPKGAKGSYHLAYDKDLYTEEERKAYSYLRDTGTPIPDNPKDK
Description: S. pyogenes streptokinase expression inhibitors, potency, dose response, plasminogen activation absorbance, OD405 (AID 1914).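 Note: secreted streptokinase activity via plasminogen activation per viability signal from cell pellet.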 The class given is functional, Streptococcus pyogenes M1 GAS.

The target of data set [4] is T3, Rac GTPase-activating protein 1 (Homo sapiens, UniProt Q9H0H5).
T3 sequence (Q9H0H5 whole entry): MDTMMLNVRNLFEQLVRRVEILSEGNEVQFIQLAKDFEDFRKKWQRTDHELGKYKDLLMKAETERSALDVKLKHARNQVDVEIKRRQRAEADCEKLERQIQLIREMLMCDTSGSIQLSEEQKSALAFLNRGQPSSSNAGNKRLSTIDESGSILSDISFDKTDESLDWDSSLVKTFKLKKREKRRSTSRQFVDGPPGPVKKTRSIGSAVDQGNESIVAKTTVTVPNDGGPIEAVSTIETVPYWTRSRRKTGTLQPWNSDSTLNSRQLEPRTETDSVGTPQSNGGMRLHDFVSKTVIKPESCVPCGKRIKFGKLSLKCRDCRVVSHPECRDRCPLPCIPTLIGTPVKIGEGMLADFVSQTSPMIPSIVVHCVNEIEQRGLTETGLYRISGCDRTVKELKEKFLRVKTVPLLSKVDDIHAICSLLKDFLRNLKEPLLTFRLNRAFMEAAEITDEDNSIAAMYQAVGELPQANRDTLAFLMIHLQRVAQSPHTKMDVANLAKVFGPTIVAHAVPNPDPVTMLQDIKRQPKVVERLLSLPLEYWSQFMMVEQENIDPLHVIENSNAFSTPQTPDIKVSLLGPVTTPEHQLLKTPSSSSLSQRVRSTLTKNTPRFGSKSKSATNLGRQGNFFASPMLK
Briefly: MgcRacGAP GTPase-activating activity inhibitors, confirmation, biochemical, ADP Hunter fluorescence, primary and confirmatory (AID 624330). The class given is functional.

The nature of data set [5]: inhibitors of firefly luciferase expression or activity, dose response, H4 neuroglioma cells, luminescence (AID 1990). The data set is classed as functional, cell-based.
Data set [6] can be described thus: inhibitors of SNCA 5'UTR-driven reporter translation, confirmation, H4 neuroglioma cells, luminescence (AID 1988). The data set is classed as functional, cell-based.

Active and inactive are the calls of the source.

Sequence of Cytochrome P450 2C9 (P11712 whole entry): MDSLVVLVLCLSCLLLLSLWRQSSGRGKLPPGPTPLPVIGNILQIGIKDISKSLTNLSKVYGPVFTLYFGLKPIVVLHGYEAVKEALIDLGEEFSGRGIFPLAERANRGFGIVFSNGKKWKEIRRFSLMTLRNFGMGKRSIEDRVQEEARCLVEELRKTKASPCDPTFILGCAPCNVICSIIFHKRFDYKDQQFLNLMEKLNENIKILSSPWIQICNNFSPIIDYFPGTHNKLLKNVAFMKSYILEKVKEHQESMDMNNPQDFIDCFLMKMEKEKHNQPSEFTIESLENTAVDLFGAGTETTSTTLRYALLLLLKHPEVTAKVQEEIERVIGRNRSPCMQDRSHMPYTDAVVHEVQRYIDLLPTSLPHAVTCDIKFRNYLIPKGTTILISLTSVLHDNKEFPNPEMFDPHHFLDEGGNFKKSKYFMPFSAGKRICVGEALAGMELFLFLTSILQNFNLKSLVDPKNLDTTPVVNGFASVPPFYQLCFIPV
Sequence of Cytochrome P450 2C19 (P33261 whole entry): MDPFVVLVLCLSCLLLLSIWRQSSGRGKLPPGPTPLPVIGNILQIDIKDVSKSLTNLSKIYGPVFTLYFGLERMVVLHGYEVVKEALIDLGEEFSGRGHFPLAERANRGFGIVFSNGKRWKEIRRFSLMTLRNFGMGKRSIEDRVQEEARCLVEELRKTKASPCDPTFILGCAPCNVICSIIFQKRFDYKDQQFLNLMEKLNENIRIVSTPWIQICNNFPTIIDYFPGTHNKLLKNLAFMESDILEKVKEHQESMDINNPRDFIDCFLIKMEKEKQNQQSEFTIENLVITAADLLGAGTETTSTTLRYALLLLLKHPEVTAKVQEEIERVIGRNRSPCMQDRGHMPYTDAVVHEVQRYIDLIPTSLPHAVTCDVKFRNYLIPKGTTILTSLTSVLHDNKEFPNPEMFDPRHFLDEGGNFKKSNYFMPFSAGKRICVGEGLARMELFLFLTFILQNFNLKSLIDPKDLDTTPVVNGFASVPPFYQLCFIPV

Regarding `COC(=O)[C@@]1(Cc2ccc(F)cc2)[C@H]2c3cc(C(=O)N4CCCC4)n(CCO)c3C[C@H]2CN1C(=O)c1ccccc1`, the AC50 at Cytochrome P450 2C19 (read-out: AC50) was 39.8 µM (inconclusive); at Cytochrome P450 1A2, 25.1 µM (inconclusive). With `Cc1ccc(-c2cc3nc(-c4ccc(Br)cc4)cc(N)n3n2)cc1`, the figures for the EC50 (in data set [1]; in the data set on Streptococcus) were 1.59 µM (active) and 1.06 µM (active), respectively. Turning to `Cc1ccc(Cn2cccc(NC(=O)NC3CCCCC3)c2=O)cc1`, the values for the concentration at half-maximal activity (AC50) at Cytochrome P450 1A2 and at Cytochrome P450 2C9 were 15.8 µM (inconclusive) and 2.51 µM (inconclusive), respectively. For `Cc1ccc(CONC(=O)/N=C/N(C)C)cc1`, the AC50 on Cytochrome P450 1A2 is 28.2 µM (inconclusive). As for `COc1ccc2[nH]c(C(=O)N3CCCN(Cc4ccc(F)cc4)CC3)cc2c1`, the figures for the EC50 in data set [2] and in data set [3] were 0.23 µM (active) and > 60 µM (not active), respectively. Turning to `CCn1c(SCc2ccc(C)cc2)nnc1-c1nn(-c2ccccc2)ccc1=O`, on Cytochrome P450 2C19, the AC50 entry is recorded as “inconclusive”. Take `Cc1cccc(C(=O)NCC(=O)N2CCOCC2)c1`: the EC50 (in data set [1]; on Streptokinase A; in the data set with Streptococcus) was > 150 µM (not active) each time.

With `Nc1ccccc1Nc1cc(-c2cccc(Cl)c2)nn1-c1ccccc1`, the EC50 in data set [2] was 4.26 µM (active); in [3] it was > 60 µM (inconclusive). Regarding `O=C(c1cccc(F)c1)N1CCC2(CCCN(c3ccccc3)C2)CC1`, the AC50 at Cytochrome P450 1A2 is 15.8 µM (inconclusive). Turning to `Cc1ccccc1OCC(O)Cn1c(NCc2ccccc2)nc2c1c(=O)[nH]c(=O)n2C` (centres undefined), at Cytochrome P450 2C9, the AC50 is 5.62 µM (inconclusive). As to `CN(C)C(=O)c1ccc(-c2ccc3ncnc(NC4CCNCC4)c3c2)cc1`, the concentration at half-maximal activity (AC50) at Cytochrome P450 1A2 is 20 µM (inconclusive). Take `Cc1ccccc1N=C(S)N1CCCC(c2nc3ccccc3[nH]2)C1` (centres undefined): the results for the EC50 in [2] and in data set [3] were 1.28 µM (active) and > 60 µM (not active), respectively. The matching figures for `COc1ccc(C2CC(c3ccccc3)=NN2C(=O)COC(=O)c2cccc(S(=O)(=O)N3CCOCC3)c2)cc1` (centres undefined): 3.37 µM (active) and > 30 µM (not active). In the case of `O=C(NC(=S)N1CCN(c2ccc(O)cc2)CC1)c1ccco1`, the IC50 in [4] was 33.1 µM (active).

As for `Cc1nc(N2CCCCC2)c2c(C)c(C(=O)Nc3cccc(C(F)(F)F)c3)sc2n1`, the EC50 in [2] is 1.54 µM (active); in data set [3] it was > 60 µM (not active). For the compound `COC(=O)[C@@H]1[C@@H](O)[C@]2(O)c3ccccc3O[C@]2(c2ccccc2)[C@H]1c1ccccc1`, the AC50 at Cytochrome P450 2C19 (read-out: AC50) was 0.316 µM (inconclusive); on Cytochrome P450 2C9, 0.0794 µM (inconclusive).

As for `CCC(CC)NC(=O)c1oc2ccccc2c1COc1ccccc1`, the EC50 is 9.43 µM (active) in data set [1], 10.6 µM (active) at Streptokinase A and 17 µM (active) with Streptococcus. For `CC1CC(C)(C)Nc2ccc(N=O)cc21` (centres undefined), the results for the EC50 in [2] and in data set [3] were 2.29 µM (active) and 3.13 µM (active), respectively. For `CC(=O)CSc1nnc(Cc2ccc([N+](=O)[O-])cc2)o1`, the AC50 on Cytochrome P450 1A2 was 15.8 µM (inconclusive); at Cytochrome P450 2C9, 35.5 µM (inconclusive). As for `CC(=O)N(CCC(Cc1ccccc1)c1ccc2c(c1)OCO2)Cc1ccc(Cl)cc1` (centres undefined), the EC50 was 7.09 µM (active) in data set [1], 58.5 µM (active) at Streptokinase A and 12.4 µM (active) in the data set with Streptococcus. `Cc1ccc(OC(=O)N2CCOCC2)cc1`: the results for the AC50 at Cytochrome P450 2C19 (read-out: AC50), at Cytochrome P450 1A2 and on Cytochrome P450 2C9 were 28.2 µM (inconclusive), 17.8 µM (inconclusive) and 39.8 µM (inconclusive), respectively. For the compound `O=C(/C=C(\c1ccc(Cl)cc1)n1cncn1)c1ccc(Cl)cc1`, the EC50 in data set [2] is 0.475 µM (active); in [3], > 60 µM (not active). With `Cc1ccc(-c2cc(C(=O)N3CCN(c4ccccc4O)CC3)c3ccccc3n2)cc1`, the EC50 in [1] was 5.39 µM (active); on Streptokinase A, > 150 µM (not active); in the data set on Streptococcus, 26.4 µM (active). Consider `OC[C@@H](O)[C@@H](O)[C@@H](O)[C@@H](O)c1nc2cc(Cl)ccc2[nH]1`, for which, at Cytochrome P450 1A2, the AC50 was 6.31 µM (inconclusive). For `CCC(C)(C)n1nnnc1C(c1cccc(C#N)c1)N1CCN(c2cc(C)ccc2C)CC1` (centres undefined), the figures for the EC50 in data set [2] and in [3] were 1.73 µM (active) and 32.6 µM (active), respectively. In the case of `O=c1c(-c2cc(F)cc(F)c2)nc2cnc(N3CCOCC3)nc2n1CCc1ccccc1`, the AC50 at Cytochrome P450 1A2 was 2.51 µM (inconclusive). As to `O=C(CC(C(=O)N1CCc2ccccc21)n1ccnc1)N1CCc2ccccc2C1` (centres undefined), the results for the EC50 in [2] and in data set [3] were 0.276 µM (active) and 11.5 µM (active), respectively. As to `O=C(COc1ncnc2cc([N+](=O)[O-])ccc12)NC(=O)NC1CCCCC1`, the EC50 in data set [2] is 0.122 µM (active); in data set [3], > 60 µM (not active).

For the compound `COc1ccc(NC(=O)c2cc(-c3cc(C)cc(C)c3O)[nH]n2)cc1Cl`, the figures for the EC50 (in data set [1]; with Streptococcus) were 2.41 µM (active) and 3.07 µM (active), respectively. In the case of `COc1cc(/C=C\c2ccc(OC)cc2OC)cc(OC)c1`, the AC50 entry on Cytochrome P450 2C19 is “inconclusive”. As for `CC(C)C[C@H](NC(=O)c1[nH]cnc1C(=O)N1CCc2ccccc2C1)C(=O)OCc1ccccc1`, the EC50 in data set [1] is 9.76 µM (active); on Streptokinase A, > 150 µM (not active); in the data set with Streptococcus, > 150 µM (not active).

As to `Cn1cc(-c2nc3cnc(Oc4ccccc4)nc3n(Cc3cccs3)c2=O)c2ccccc21`, on Cytochrome P450 1A2, the AC50 is 3.16 µM (inconclusive). On to `CN/C(=N/c1cc(Cl)ccc1Cl)SC1CC(=O)N(c2ccc(C(=O)OC)cc2)C1=O` (centres undefined), for which the EC50 at Streptokinase A is recorded as > 50 µM (not active). For `Cc1ccc2cc3c(N)c(C(=O)N4CC(=O)Nc5ccccc54)sc3nc2c1`, the EC50 in data set [5] and in data set [6] was < 0.1 µM (active) in each case. As for `CS(=O)(=O)Nc1cccc(-c2nc(NCc3cccs3)c3ccccc3n2)c1`, the AC50 at Cytochrome P450 2C9 is 1.26 µM (inconclusive).

Take `CN(C)CCN(C(=O)c1ccc(S(=O)(=O)N2CCCC2)cc1)c1nc2ccc(Br)cc2s1`: the EC50 was 0.122 µM (active) in data set [2] and > 30 µM (not active) in data set [3]. Consider `CCn1ncc(C(=O)Nc2cc(C)on2)c1C`, for which the AC50 on Cytochrome P450 2C19 (read-out: AC50) and at Cytochrome P450 1A2 was 15.8 µM (inconclusive) each time. For the compound `O=c1c(-c2cc(F)cc(F)c2)nc2cnc(Oc3ccccc3)nc2n1C1CC1`, on Cytochrome P450 2C9, the concentration at half-maximal activity (AC50) was 10 µM (inconclusive). `CCOC(=O)CSc1nnc(CNC(=O)c2ccc(OC)cc2)n1C1CCCCC1`: the AC50 at Cytochrome P450 2C19 (read-out: AC50) is 10 µM (inconclusive); on Cytochrome P450 1A2 it was 5.01 µM (inconclusive). Regarding `COc1ccc(C2=NCC(CSc3nnc(-c4ccc5c(c4)OCO5)o3)S2)cc1` (centres undefined), the EC50 was 0.62 µM (active) in [2] and > 60 µM (not active) in data set [3].

On to `CN1CCN(c2ncc3nc(-c4ccccc4)c(=O)n(Cc4ccc(F)cc4)c3n2)CC1`, for which the AC50 on Cytochrome P450 2C19 (read-out: AC50) is 39.8 µM (inconclusive).

Source of the values: ChEMBL document CHEMBL1201862, “PubChem BioAssay data set” (2004).
